Active and inactive are the calls of the source.
Assays:
[1] = molecular target: Glucose-6-phosphate 1-dehydrogenase (Homo sapiens, UniProt P11413); test: human G6PD enzyme inhibitors, dose response, selectivity assay for P. falciparum G6PD inhibitor project, biochemical, fluorescence (AID 504792); format: functional
HeLa = test: HeLa cell cytotoxicity, dose response, cytotoxicity control for MITF activator project, CellTiter-Glo luminescence, cherry-pick samples (AID 540259); format: functional, cell-based; details: Homo sapiens
Mu-type opioid receptor = Mu-type opioid receptor (Homo sapiens, UniProt P35372); test: (§1) Counterscreen for agonists of heterodimerization of the mu 1 (OPRM1) and delta 1 (OPRD1) opioid receptors: Luminescence-based cell-based high throughput dose response assay to identify agonists of OPRM1 homodimerization.; format: functional
[2] = molecular target: Delta-type opioid receptor (Homo sapiens, UniProt P41143); test: as §1, with “of OPRD1” for “of OPRM1”, “homodimerization. [Related pubchem assays (depositor defined):AID504326, AID504355, AID504692, AID504904, AID504905]” for “homodimerization.”; format: functional
[3] = molecular target: 72 kDa type IV collagenase (Homo sapiens, UniProt P08253); test: Dose Response validation of uHTS RPN11 inhibitor hits using a MMP-2 Fluorescence assay.; format: functional
[4] = molecular target: T1, Apoptotic protease-activating factor 1 (Homo sapiens, UniProt O14727); format: functional
T1 sequence (O14727 whole entry): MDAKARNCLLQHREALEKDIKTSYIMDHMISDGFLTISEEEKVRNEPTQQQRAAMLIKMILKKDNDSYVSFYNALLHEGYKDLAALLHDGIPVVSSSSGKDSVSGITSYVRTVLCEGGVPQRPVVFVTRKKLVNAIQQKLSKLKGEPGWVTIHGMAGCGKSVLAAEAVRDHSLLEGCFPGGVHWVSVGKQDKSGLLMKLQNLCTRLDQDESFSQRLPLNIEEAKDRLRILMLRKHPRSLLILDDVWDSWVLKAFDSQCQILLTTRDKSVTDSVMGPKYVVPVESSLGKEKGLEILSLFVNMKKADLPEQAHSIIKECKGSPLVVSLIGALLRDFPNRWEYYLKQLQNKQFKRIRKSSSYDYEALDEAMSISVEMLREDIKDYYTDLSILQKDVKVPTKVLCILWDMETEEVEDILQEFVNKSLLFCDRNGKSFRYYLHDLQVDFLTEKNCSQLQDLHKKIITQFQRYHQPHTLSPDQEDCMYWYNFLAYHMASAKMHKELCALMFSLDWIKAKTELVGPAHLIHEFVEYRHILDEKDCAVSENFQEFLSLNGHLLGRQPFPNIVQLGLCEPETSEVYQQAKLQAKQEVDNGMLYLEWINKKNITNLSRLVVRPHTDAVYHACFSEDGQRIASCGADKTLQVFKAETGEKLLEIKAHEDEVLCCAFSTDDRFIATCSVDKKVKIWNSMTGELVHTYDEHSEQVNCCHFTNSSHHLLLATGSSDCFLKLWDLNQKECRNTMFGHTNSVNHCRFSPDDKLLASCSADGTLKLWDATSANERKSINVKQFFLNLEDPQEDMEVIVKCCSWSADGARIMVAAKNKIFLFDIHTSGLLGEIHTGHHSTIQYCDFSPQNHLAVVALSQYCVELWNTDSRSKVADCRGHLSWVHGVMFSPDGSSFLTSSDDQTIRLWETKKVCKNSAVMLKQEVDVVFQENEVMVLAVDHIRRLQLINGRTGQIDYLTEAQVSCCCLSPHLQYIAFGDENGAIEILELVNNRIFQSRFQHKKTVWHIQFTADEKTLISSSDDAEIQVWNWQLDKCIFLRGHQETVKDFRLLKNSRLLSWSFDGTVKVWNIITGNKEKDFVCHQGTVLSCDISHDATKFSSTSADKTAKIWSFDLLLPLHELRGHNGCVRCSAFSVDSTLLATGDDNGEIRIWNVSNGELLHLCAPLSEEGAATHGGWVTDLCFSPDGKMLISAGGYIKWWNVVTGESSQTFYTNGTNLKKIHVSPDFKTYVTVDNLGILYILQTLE

Prothrombin = Prothrombin (Bos taurus, UniProt P00735); test: thrombin inhibition, dose response, biochemical, fluorescence polarization, uHTS hits (AID 602369); format: functional
[5] = molecular target: 26S proteasome non-ATPase regulatory subunit 14 (Homo sapiens, UniProt O00487); test: inhibition of proteasome subunit RPN11 – biochemical, fluorescence polarization, uHTS hits, confirmation (AID 602368); format: functional
[6] = molecular target: 5-hydroxytryptamine receptor 5A (Homo sapiens, UniProt P47898); test: Counterscreen for agonists of OPRM1-OPRD1 heterodimerization: luminescence-based cell-based high throughput dose response assay to identify agonists of 5-hydroxytryptamine (serotonin) 5A receptor (HTR5A). [Related pubchem assays (depositor defined):AID504326, AID504355, AID504692, AID504904, AID504905]; format: functional
Sequence of 5-hydroxytryptamine receptor 5A (P47898 whole entry): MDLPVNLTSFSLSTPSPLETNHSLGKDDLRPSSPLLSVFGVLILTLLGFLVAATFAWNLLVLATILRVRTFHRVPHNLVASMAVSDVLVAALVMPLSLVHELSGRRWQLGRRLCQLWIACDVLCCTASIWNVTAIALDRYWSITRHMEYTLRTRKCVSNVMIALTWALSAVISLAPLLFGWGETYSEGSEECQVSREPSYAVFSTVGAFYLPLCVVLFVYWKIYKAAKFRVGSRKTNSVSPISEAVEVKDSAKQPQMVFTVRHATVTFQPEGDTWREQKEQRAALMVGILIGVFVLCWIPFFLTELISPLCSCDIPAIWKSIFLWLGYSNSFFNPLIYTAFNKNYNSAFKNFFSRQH

Sequence of Glucose-6-phosphate 1-dehydrogenase (P11413 whole entry): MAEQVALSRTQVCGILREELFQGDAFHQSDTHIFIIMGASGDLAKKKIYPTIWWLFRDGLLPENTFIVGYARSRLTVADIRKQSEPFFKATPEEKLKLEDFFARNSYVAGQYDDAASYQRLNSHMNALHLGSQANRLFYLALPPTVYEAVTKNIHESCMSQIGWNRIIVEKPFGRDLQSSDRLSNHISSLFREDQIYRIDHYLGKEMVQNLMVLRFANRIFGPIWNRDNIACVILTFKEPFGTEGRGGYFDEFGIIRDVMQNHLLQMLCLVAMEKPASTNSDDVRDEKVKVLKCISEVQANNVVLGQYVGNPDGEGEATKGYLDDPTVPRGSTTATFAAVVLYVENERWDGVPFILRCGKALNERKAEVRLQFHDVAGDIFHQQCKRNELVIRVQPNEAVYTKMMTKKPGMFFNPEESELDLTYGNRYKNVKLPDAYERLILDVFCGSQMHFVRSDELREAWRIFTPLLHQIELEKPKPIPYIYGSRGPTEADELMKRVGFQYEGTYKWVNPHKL
Sequence of 72 kDa type IV collagenase (P08253 whole entry): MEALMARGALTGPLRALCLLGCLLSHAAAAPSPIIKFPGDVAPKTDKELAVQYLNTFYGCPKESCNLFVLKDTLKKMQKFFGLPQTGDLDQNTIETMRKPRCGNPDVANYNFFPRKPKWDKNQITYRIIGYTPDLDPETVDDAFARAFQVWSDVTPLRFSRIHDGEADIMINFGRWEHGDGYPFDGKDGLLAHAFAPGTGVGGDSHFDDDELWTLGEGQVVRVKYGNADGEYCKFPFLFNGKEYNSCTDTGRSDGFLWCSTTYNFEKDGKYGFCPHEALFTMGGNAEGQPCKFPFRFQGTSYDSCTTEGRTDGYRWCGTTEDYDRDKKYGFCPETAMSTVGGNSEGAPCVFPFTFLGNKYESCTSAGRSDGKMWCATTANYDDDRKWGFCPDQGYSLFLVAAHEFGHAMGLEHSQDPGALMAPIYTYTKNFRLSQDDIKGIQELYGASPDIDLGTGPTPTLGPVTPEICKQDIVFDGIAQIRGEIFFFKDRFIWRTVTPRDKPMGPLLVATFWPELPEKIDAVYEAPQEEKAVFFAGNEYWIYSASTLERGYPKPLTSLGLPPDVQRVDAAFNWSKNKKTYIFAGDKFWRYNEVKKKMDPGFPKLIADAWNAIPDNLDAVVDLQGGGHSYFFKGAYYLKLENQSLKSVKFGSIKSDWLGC
Sequence of 26S proteasome non-ATPase regulatory subunit 14 (O00487 whole entry): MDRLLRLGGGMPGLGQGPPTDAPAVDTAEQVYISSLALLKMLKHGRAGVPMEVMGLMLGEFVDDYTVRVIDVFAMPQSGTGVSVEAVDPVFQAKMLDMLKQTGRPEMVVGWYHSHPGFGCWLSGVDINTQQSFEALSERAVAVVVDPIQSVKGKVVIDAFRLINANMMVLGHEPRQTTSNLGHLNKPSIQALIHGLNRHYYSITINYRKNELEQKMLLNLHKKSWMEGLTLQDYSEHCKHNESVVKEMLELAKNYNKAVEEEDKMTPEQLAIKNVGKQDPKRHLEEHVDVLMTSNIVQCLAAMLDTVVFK
Sequence of Mu-type opioid receptor (P35372 whole entry): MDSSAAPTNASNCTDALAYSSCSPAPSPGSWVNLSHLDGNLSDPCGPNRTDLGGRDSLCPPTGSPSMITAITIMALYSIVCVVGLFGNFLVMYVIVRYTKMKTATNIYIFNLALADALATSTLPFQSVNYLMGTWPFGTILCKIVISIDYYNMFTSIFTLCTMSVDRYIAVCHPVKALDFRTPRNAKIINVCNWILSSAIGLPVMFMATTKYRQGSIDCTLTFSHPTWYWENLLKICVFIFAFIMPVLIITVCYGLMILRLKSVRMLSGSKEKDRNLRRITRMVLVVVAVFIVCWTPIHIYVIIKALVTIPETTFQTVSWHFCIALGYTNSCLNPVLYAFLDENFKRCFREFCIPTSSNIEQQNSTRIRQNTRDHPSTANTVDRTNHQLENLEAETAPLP
Sequence of Delta-type opioid receptor (P41143 whole entry): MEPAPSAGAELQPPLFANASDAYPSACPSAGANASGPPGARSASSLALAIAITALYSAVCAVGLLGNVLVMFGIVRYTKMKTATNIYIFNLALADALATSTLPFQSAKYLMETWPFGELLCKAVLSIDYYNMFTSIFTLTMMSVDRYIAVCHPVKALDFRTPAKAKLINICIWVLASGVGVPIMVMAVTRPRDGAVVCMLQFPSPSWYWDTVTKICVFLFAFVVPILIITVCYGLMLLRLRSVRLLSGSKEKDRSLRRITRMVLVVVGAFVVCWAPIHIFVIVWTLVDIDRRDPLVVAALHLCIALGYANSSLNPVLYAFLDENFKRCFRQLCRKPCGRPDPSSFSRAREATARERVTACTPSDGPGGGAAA

`COc1ccc(CN(C)S(=O)(=O)c2nnc(NC(=O)c3cccc(C)c3)s2)cc1OC` was tested, and the IC50 [1] was 61.2 µM (inactive).
For `O=C(COC(=O)c1cnccn1)c1ccc([N+](=O)[O-])cc1`, the IC50 [1] was > 80 µM (inactive).
In the case of `Cc1nn2cc(-c3ccc(Cl)cc3)cnc2c1Cl`, the AC50 (HeLa) is reported as 108 µM (active).
With `Cc1cc(N2CCN(c3ccc([N+](=O)[O-])c4cccnc34)CC2)c2ccccc2n1` the EC50 (Mu-type opioid receptor) was > 92.5 µM (inactive), the EC50 [2] was > 92.5 µM (inactive) and the IC50 [3] was > 100 µM (inactive). The IC50 [4] was 34 µM (active), the IC50 (Prothrombin) was 27.7 µM (active) and the IC50 [5] was 27.7 µM (active). The EC50 [6] was > 92.5 µM (inactive).

Source: ChEMBL document CHEMBL1201862, “PubChem BioAssay data set” (2004)
